Experimental data reported in PubChem BioAssay AID2060604 (Molecular Pharmacology Branch, DTP, NCI, 2025).

Test system: 379773-124-R-J2-PDC complex spheroids, viability % test/control
Test: Anticancer human tumor 379773-124-R-J2-PDC patient-derived endometrial carcinoma cell line growth inhibition [CLK]
Conditions: for IC50: curve of first compound; for viability, T/C: stronger effect = lower value
Procedure, shortened: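 Multi-cell-type spheroids combined patient-derived tumor cells with HUVEC endothelial cells and human mesenchymal stem cells. Paired agents were dosed in half-log steps down from about clinical Cmax, or from 10 microM where Cmax was unknown.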

[1] = second compound 0.0316 µM, first compound 0.0316 µM
[2] = second compound 0.0316 µM, first compound 0.1 µM
[3] = second compound 0.0316 µM, first compound 0.316 µM
[4] = second compound 0.0316 µM, first compound 1 µM
[5] = second compound 0.0316 µM, first compound 3.16 µM
[6] = second compound 0.0316 µM, first compound 10 µM
[7] = second compound 0.1 µM, first compound 0.0316 µM
[8] = second compound 0.1 µM, first compound 0.1 µM
[9] = second compound 0.1 µM, first compound 0.316 µM
[10] = second compound 0.1 µM, first compound 1 µM
[11] = second compound 0.1 µM, first compound 3.16 µM
[12] = second compound 0.1 µM, first compound 10 µM
[13] = second compound 0.316 µM, first compound 0.0316 µM
[14] = second compound 0.316 µM, first compound 0.1 µM
[15] = second compound 0.316 µM, first compound 0.316 µM
[16] = second compound 0.316 µM, first compound 1 µM
[17] = second compound 0.316 µM, first compound 3.16 µM
[18] = second compound 0.316 µM, first compound 10 µM
[19] = second compound 1 µM, first compound 0.0316 µM
[20] = second compound 1 µM, first compound 0.1 µM
[21] = second compound 1 µM, first compound 0.316 µM
[22] = second compound 1 µM, first compound 1 µM
[23] = second compound 1 µM, first compound 3.16 µM
[24] = second compound 1 µM, first compound 10 µM
[25] = second compound 3.16 µM, first compound 0.0316 µM
[26] = second compound 3.16 µM, first compound 0.1 µM
[27] = second compound 3.16 µM, first compound 0.316 µM
[28] = second compound 3.16 µM, first compound 1 µM
[29] = second compound 3.16 µM, first compound 3.16 µM
[30] = second compound 3.16 µM, first compound 10 µM
[31] = second compound 10 µM, first compound 0.0316 µM
[32] = second compound 10 µM, first compound 0.1 µM
[33] = second compound 10 µM, first compound 0.316 µM
[34] = second compound 10 µM, first compound 1 µM
[35] = second compound 10 µM, first compound 3.16 µM
[36] = second compound 10 µM, first compound 10 µM
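Further: compound exposure lasted seven days before the viability readout.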
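Wherever viability, T/C is given: 100% = DMSO vehicle control wells.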

`CC(=O)O[C@H]1C(=O)[C@@]2(C)[C@H]([C@H](OC(=O)c3ccccc3)[C@]3(O)C[C@H](OC(=O)[C@H](O)[C@@H](NC(=O)c4ccccc4)c4ccccc4)C(C)=C1C3(C)C)[C@]1(OC(C)=O)CO[C@@H]1C[C@@H]2O` + CNC(=O)c1ccc(Nc2nc(OC3CCCC3)c3c(-c4ccc5nc(C)oc5c4)c[nH]c3n2)c(OC)c1 was tested, and the IC50 (second compound 0.0316 µM) was < 31.6 nM, the IC50 (second compound 0.1 µM) was < 31.6 nM and the IC50 (second compound 0.316 µM) was < 31.6 nM. The IC50 (second compound 1 µM) was < 31.6 nM, the IC50 (second compound 3.16 µM) was < 31.6 nM and the IC50 (second compound 10 µM) was < 31.6 nM. The viability, T/C [1] was 9.1%, the viability, T/C [2] was 12.2% and the viability, T/C [3] was 13.4%. The viability, T/C [4] was 9.72%, the viability, T/C [5] was 15.4% and the viability, T/C [6] was 17.7%. The viability, T/C [7] was 24.6%, the viability, T/C [8] was 28.4% and the viability, T/C [9] was 28.9%. The viability, T/C [10] was 34.6%, the viability, T/C [11] was 25% and the viability, T/C [12] was 33.2%. The viability, T/C [13] was 27.6%, the viability, T/C [14] was 24.8% and the viability, T/C [15] was 33.2%. The viability, T/C [16] was 33.3%, the viability, T/C [17] was 32.2% and the viability, T/C [18] was 27.7%. For the same compound, the viability, T/C [19] was 30%, the viability, T/C [20] was 28.4% and the viability, T/C [21] was 33.6%. It also gave a viability, T/C [22] of 36%, a viability, T/C [23] of 29.2% and a viability, T/C [24] of 37.7%. The viability, T/C [25] was 30%, the viability, T/C [26] was 27.3% and the viability, T/C [27] was 28.9%. The viability, T/C [28] was 25.5%, the viability, T/C [29] was 26.4% and the viability, T/C [30] was 31.8%. It also gave a viability, T/C [31] of 29.1%, a viability, T/C [32] of 33.5% and a viability, T/C [33] of 31.6%. For the same compound, the viability, T/C [34] was 35.1%, the viability, T/C [35] was 30.7% and the viability, T/C [36] was 36.1%.
In the case of `CCc1c2c(nc3ccc(O)cc13)-c1cc3c(c(=O)n1C2)COC(=O)[C@]3(O)CC` + CNC(=O)c1ccc(Nc2nc(OC3CCCC3)c3c(-c4ccc5nc(C)oc5c4)c[nH]c3n2)c(OC)c1, the IC50 (second compound 0.0316 µM) is reported as < 3.16 nM, the IC50 (second compound 0.1 µM) is reported as < 3.16 nM and the IC50 (second compound 0.316 µM) is reported as < 3.16 nM. The IC50 (second compound 1 µM) was < 3.16 nM, the IC50 (second compound 3.16 µM) was < 3.16 nM and the IC50 (second compound 10 µM) was < 3.16 nM. It also gave a viability, T/C (second compound 0.0316 µM, first compound 0.00316 µM) of 12.8%, a viability, T/C (second compound 0.0316 µM, first compound 0.01 µM) of 6.83% and a viability, T/C [1] of 2.79%. For the same compound, the viability, T/C [2] was 1.86%, the viability, T/C [3] was 0.94% and the viability, T/C [4] was 0.4%. For the same compound, the viability, T/C (second compound 0.1 µM, first compound 0.00316 µM) was 7.91%, the viability, T/C (second compound 0.1 µM, first compound 0.01 µM) was 4.87% and the viability, T/C [7] was 2.4%. The viability, T/C [8] was 1.19%, the viability, T/C [9] was 0.65% and the viability, T/C [10] was 0.35%. The viability, T/C (second compound 0.316 µM, first compound 0.00316 µM) was 6.52%, the viability, T/C (second compound 0.316 µM, first compound 0.01 µM) was 5.08% and the viability, T/C [13] was 2.12%. It also gave a viability, T/C [14] of 1.42%, a viability, T/C [15] of 0.6% and a viability, T/C [16] of 0.25%. It also gave a viability, T/C (second compound 1 µM, first compound 0.00316 µM) of 5.11%, a viability, T/C (second compound 1 µM, first compound 0.01 µM) of 4.25% and a viability, T/C [19] of 2.43%. It also gave a viability, T/C [20] of 0.96%, a viability, T/C [21] of 0.45% and a viability, T/C [22] of 0.37%. It also gave a viability, T/C (second compound 3.16 µM, first compound 0.00316 µM) of 5.35%, a viability, T/C (second compound 3.16 µM, first compound 0.01 µM) of 4.96% and a viability, T/C [25] of 1.98%. It also gave a viability, T/C [26] of 1.08%, a viability, T/C [27] of 0.6% and a viability, T/C [28] of 0.2%. For the same compound, the viability, T/C (second compound 10 µM, first compound 0.00316 µM) was 5.38%, the viability, T/C (second compound 10 µM, first compound 0.01 µM) was 4.45% and the viability, T/C [31] was 2.55%. For the same compound, the viability, T/C [32] was 1.19%, the viability, T/C [33] was 0.79% and the viability, T/C [34] was 0.39%.
With `COc1cccc2c1C(=O)c1c(O)c3c(c(O)c1C2=O)CC(O)(C(=O)CO)CC3OC1CC(N)C(O)C(C)O1` (stereo unspecified) + CNC(=O)c1ccc(Nc2nc(OC3CCCC3)c3c(-c4ccc5nc(C)oc5c4)c[nH]c3n2)c(OC)c1 the IC50 (second compound 0.0316 µM) was < 31.6 nM, the IC50 (second compound 0.1 µM) was < 31.6 nM and the IC50 (second compound 0.316 µM) was < 31.6 nM. The IC50 (second compound 1 µM) was < 31.6 nM, the IC50 (second compound 3.16 µM) was < 31.6 nM and the IC50 (second compound 10 µM) was < 31.6 nM. For the same compound, the viability, T/C [1] was 31.1%, the viability, T/C [2] was 6.01% and the viability, T/C [3] was 5.35%. The viability, T/C [4] was 3.7%, the viability, T/C [5] was 0.43% and the viability, T/C [6] was 0.22%. For the same compound, the viability, T/C [7] was 22.6%, the viability, T/C [8] was 6.93% and the viability, T/C [9] was 5.94%. It also gave a viability, T/C [10] of 3.46%, a viability, T/C [11] of 0.36% and a viability, T/C [12] of 0.17%. It also gave a viability, T/C [13] of 25.9%, a viability, T/C [14] of 4.93% and a viability, T/C [15] of 3.63%. The viability, T/C [16] was 2.73%, the viability, T/C [17] was 0.13% and the viability, T/C [18] was 0.11%. It also gave a viability, T/C [19] of 17.8%, a viability, T/C [20] of 4.68% and a viability, T/C [21] of 3.73%. It also gave a viability, T/C [22] of 1.18%, a viability, T/C [23] of 0.15% and a viability, T/C [24] of 0.06%. For the same compound, the viability, T/C [25] was 12%, the viability, T/C [26] was 5.12% and the viability, T/C [27] was 3.67%. For the same compound, the viability, T/C [28] was 1.27%, the viability, T/C [29] was 0.08% and the viability, T/C [30] was 0.12%. The viability, T/C [31] was 9.36%, the viability, T/C [32] was 5.57% and the viability, T/C [33] was 3.11%. The viability, T/C [34] was 1.07%, the viability, T/C [35] was 0.14% and the viability, T/C [36] was 0.23%.
